Paper PMC10820527, “Synthesis, Characterization, and Investigation of Anti-Inflammatory and Cytotoxic Activities of Novel Thiourea Derivatives of Naproxen” (Pharmaceutics, 2023)

What was measured:
healthy male rats = experiment: Acute oral toxicity assessment (OECD Guidelines No. 423); format: in vivo, rat; settings: single per os dose 10 mg/kg, sacrifice after 14 days, (absolute organ weight × 100%)/body weight
Protocol: The acute oral toxicity was assessed in healthy male rats (n = 24, three rats per group, body weight 180–200 g) according to a previously established protocol and the OECD Guidelines No. 423 [37, 38].
Animals were randomly assigned to the following groups: control group—rats that received single dose of 1% DMSO and experimental groups—rats that received compounds 8–14 per os in the single dose of 10 mg/kg dissolved in 1% DMSO. All rats were fasted prior to administration of compounds and during 3 h following the treatment.
Afterwards, rats were kept in single cages and observed once daily during 14 days for clinical signs of toxicity. All behavioral changes and any signs of toxicity were recorded (fur and skin, urination (color), feces consistency, eyes, salivation, any alterations in behavior pattern). Additionally, food and water intake and the body weight were measured daily over 14 days. After accomplishing the monitoring period, rats were sacrificed, and organ weight (liver, kidney, stomach, and heart) was recorded. Relative organ weight was calculated as follows: (absolute organ weight × 100%)/body weight of rat on the day of sacrifice(1)

COX-2 = biological target: T1, COX-2 (Homo sapiens, UniProt P35354); experiment: Fluorometric COX-2 inhibitor screening kit; format: biochemical; settings: mean of two measurements with standard error, read-out: COX-2 Percent of Inhibition
T1 construct: purchased Abcam
T1 sequence (P35354 18-604): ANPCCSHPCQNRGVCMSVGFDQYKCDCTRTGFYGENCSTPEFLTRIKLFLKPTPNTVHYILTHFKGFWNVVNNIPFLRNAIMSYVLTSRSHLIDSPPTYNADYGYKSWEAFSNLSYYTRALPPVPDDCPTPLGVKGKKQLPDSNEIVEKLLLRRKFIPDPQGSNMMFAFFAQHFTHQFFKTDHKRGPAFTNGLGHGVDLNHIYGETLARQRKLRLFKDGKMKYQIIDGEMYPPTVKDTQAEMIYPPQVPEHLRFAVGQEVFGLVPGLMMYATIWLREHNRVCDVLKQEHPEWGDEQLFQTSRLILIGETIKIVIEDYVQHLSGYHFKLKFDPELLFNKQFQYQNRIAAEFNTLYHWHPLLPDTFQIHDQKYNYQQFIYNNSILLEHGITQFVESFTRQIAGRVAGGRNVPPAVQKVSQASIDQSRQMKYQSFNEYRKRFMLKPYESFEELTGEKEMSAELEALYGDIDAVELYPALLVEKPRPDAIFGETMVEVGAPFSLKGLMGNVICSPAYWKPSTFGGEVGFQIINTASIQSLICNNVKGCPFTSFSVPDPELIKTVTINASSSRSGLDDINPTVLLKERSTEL
Protocol: The COX-2 and 5-LOX inhibitory potential of the tested compounds was evaluated using a fluorometric COX-2 and 5-LOX inhibitor screening kit (Abcam, Cambridge, UK). These tests are based on determining the presence of prostaglandin G2 (a product of COX enzyme activity) or an intermediate generated by the enzyme 5-LOX, using fluorometric detection. The mentioned experiments were performed according to the manufacturer’s instructions.
For the determination of COX-2 inhibitory potential of tested compounds, stock solutions (5 mM in DMSO) were diluted with the same solvent (test solutions). The test solutions were further diluted with COX assay buffer by mixing 2 µL of the corresponding test solution and 8 µL of COX assay buffer. For the preparation of inhibitory control (IC), celecoxib (2 µL) and COX assay buffer (8 µL) were mixed. Solvent control (SC) was prepared by mixing DMSO (2 µL) and the COX assay buffer (8 µL), enzyme control (EC) was 10 µL of COX assay buffer, while the samples (S) were 10 µL of diluted test solutions. IC, SC, EC, and S were transferred into corresponding wells. For the determination of 5-LOX inhibitory potential of tested compounds, stock solutions of the same concentration (5 mM) were prepared in DMSO. These solutions were further diluted with the same solvent to obtain the test solutions, which were added into the appropriate wells (2 µL). EC, SC, and IC were prepared by adding 2 µL of the assay buffer, DMSO, and zileuton into corresponding wells, respectively.
The fluorescence of the samples was measured kinetically at 25 °C (COX-2: Ex/Em = 535/587 nm, during 10 min; 5-LOX: Ek/Em = 500/536 nm during 20 min) using a Synergi LX multi-mode microplate reader (BioTek, Shoreline, WA, USA).

MDA-MB-231 = experiment: MTT cytotoxicity assay, MDA-MB-231; format: cell-based, human; settings: for IC50: mean ± SD
Protocol: (§1) Three cancer cell lines (MDA-MB-231, HCT116 and HeLa; i.e., human breast cancer cells, human colorectal cancer cells, and human cervical cancer cells, respectively), and one non-malignant fibroblast MRC-5 cell line (control) were used in this study. The American Type Cell Collection (ATCC, Manassas, VA, USA) provided all examined cell lines. The cells were grown in a complete medium made up of high-glucose DMEM media supplemented with 10% fetal bovine serum and […] L-glutamine (both from Sigma-Aldrich, USA). The cells were cultured in 25 cc flasks (Thermo Fischer Scientific, Waltham, MA, USA) at 37 °C with 100% humidity in a 5% CO2 atmosphere.
(§2) The MTT test was used to assess the cytotoxicity of compounds 1–14 [44]. The cytotoxicity of naproxen was also investigated due to its clinical use and structural similarity. Throughout the exponential development period, cells were taken from culture flasks and counted, and 5 × 10^3 cells/well were planted into 96-well culture plates. Following that, the cell lines were treated with varying doses of the investigated chemicals (1–14), naproxen ([…]), and fresh complete media as a control. All evaluated cells were incubated for 24, 48, and 72 h at 37 °C in an environment containing 5% CO2 and 100% humidity. Following incubation, each well’s culture media was taken out, each well received an addition of MTT solution at a final concentration of 0.5 mg/mL, and the cells were left to incubate for an additional four hours. The MTT solution was then withdrawn carefully, and the formazan crystals were dissolved in DMSO. After shaking the plates for 10 min, absorbance at 595 nm was measured using a multiplate reader (Zenyth 3100, Anthos Labtec Instruments, Salzburg, Austria). All concentrations of the tested compounds were performed in three separate wells of the microtiter plates and in three separate experiments. The results were reported as a ratio to the control value, untreated cells. IC50 values were also determined using Microsoft Office Excel 2021. The percentage of viable cells was estimated by dividing the readout absorbance value in the wells containing treated cells by the average absorbance value measured in the wells containing untreated cells, and multiplying the result by 100 [44]. % of the viable cells = ((absorbance of treated cell-absorbance of blank)/(absorbance of untreated cell-absorbance of blank)) × 100(3)

[1] = test system: MRC-5 fibroblast cell line; experiment: MTT cytotoxicity assay, MRC-5; format: cell-based; settings: Homo sapiens, mean ± SD
Protocol: as §1, §2

[2] = Homo sapiens, MDA-MB-231, 24 h, 24 h
[3] = Homo sapiens, MDA-MB-231, 48 h, 48 h
[4] = Homo sapiens, MDA-MB-231, 72 h, 72 h

Structure (SMILES)	Relative organ weight, Heart (healthy male rats)	Relative organ weight, Kidney (healthy male rats)	Relative organ weight, Liver (healthy male rats)	Relative organ weight, Stomach (healthy male rats)	inhibition at 10 µM (COX-2) [%]	IC50 (MDA-MB-231; [2]) [µM]	IC50 (MDA-MB-231; [3]) [µM]	IC50 (MDA-MB-231; [4]) [µM]	IC50 ([1]; MRC5, 24 h) [µM]	IC50 ([1]; MRC5, 48 h) [µM]	IC50 ([1]; MRC5, 72 h) [µM]	Cytotoxic effect against the MDA-MB-231 cell line (in words) (MDA-MB-231)	IC50 (MDA-MB-231; 72 h) [µM]
COc1ccc2cc([C@H](C)C(=O)NC(=S)Nc3ccccc3OC)ccc2c1 [Compound 11, (S)-2-(6-methoxynaphthalen-2-yl)-N-((2-methoxyphenyl)carbamothioyl)propanamide]	0.32 ± 0.02	0.33 ± 0.05	2.83 ± 0.20	0.54 ± 0.05	16.2 ± 13.7	> 200	> 200	> 200	> 200	> 200	> 200	–	–
COC(=O)[C@H](Cc1c[nH]c2ccccc12)NC(=S)NC(=O)[C@@H](C)c1ccc2cc(OC)ccc2c1 [Compound 14, Methyl (((S)-2-(6-methoxynaphthalen-2-yl)propanoyl)carbamothioyl)tryptophanate]	0.31 ± 0.02	0.29 ± 0.04	2.03 ± 0.42	0.53 ± 0.04	29.8 ± 12.1	> 200	> 200	117 ± 15.3	> 200	> 200	> 200	–	–
COc1ccc2cc([C@H](C)C(=O)NC(=S)Nc3ccccc3C)ccc2c1 [Compound 10, (S)-2-(6-methoxynaphthalen-2-yl)-N-(o-tolylcarbamothioyl)propanamide]	0.34 ±0.04	0.31 ± 0.04	2.67 ± 0.15	0.58 ± 0.04	12.6 ± 4.99	101 ± 11.2	70.5 ± 8.3	42 ± 9	> 200	> 200	> 200	moderate cytotoxic effect	42.2 ± 9.8
COc1ccc2cc([C@H](C)C(=O)NC(=S)Nc3ccccc3)ccc2c1 [Compound 8, (S)-2-(6-methoxynaphthalen-2-yl)-N-(phenylcarbamothioyl)propanamide]	0.31 ± 0.01	0.32 ± 0.02	2.65 ± 0.15	0.51 ± 0.06	36.2 ± 16.4	> 200	> 200	> 200	> 200	> 200	> 200	–	–
COC(=O)[C@H](Cc1ccccc1)NC(=S)NC(=O)[C@@H](C)c1ccc2cc(OC)ccc2c1 [Compound 13, Methyl (((S)-2-(6-methoxynaphthalen-2-yl)propanoyl)carbamothioyl)phenylalaninate]	0.30 ± 0.04	0.28 ± 0.06	3.09 ± 0.27	0.50 ± 0.06	23.1 ± 9.83	> 200	> 200	99.5 ± 8.2	> 200	> 200	> 200	–	–
COc1ccc2cc([C@H](C)C(=O)NC(=S)Nc3ccc(C)cc3)ccc2c1 [Compound 9, (S)-2-(6-methoxynaphthalen-2-yl)-N-(p-tolylcarbamothioyl)propanamide]	0.29 ± 0.03	0.29 ± 0.03	3.01 ± 0.27	0.56 ± 0.03	26.8 ± 6.07	> 200	> 200	112 ± 18.1	> 200	> 200	> 200	–	–
COc1ccc2cc([C@H](C)C(=O)NC(=S)Nc3ccccc3F)ccc2c1 [Compound 12, (S)-N-((2-fluorophenyl)carbamothioyl)-2-(6-methoxynaphthalen-2-yl)propanamide]	0.35 ± 0.03	0.32 ± 0.04	2.76 ± 0.36	0.59 ± 0.05	13.8 ± 6.41	> 200	> 200	> 200	> 200	> 200	> 200	–	–
